From patent US20230241158A1, “Hydrophilic Degradable Microspheres for Local Delivering of Glycopeptide Antibiotics and Polycationic Peptide Antibiotics” (priority 2020, published 2023) come the findings set out here.

Details of this data set: species or system White New Zealand male rabbits. The following applies: rabbit, in vivo, sc, 18 mg/kg. The method, then:
The study was performed in 6 White New Zealand male rabbits (body weight: 3.63±0.17 kg; min-max 3.47-3.88 kg) and included MS1 and MS2 loaded at 40 mg/mL of teicoplanin (Sigma, T-0578).
Briefly, teicoplanin was reconstituted in water for injection at the concentration of […] (100 mL). Sterile dry beads (≈6 mL in 5% glucose) were hydrated/loaded in the teicoplanin solution (20 mL) with continuous agitation on rotating wheel (≈30 rpm). After 20 min, the supernatant was retrieved and kept for drug quantification. Microspheres (MS1 and MS2) were then washed in water, and kept on shell until the time of administration. At the time of injection, MS were suspended in saline and the appropriate volume of bead (≈4 mL) suspension was sampled for injection at a ratio of 2:1 MS/saline (Table 7). Each microsphere was administered once subcutaneously at the same dose of drug at two injection sites to 2 animals. Teicoplanin control (Sigma, T-0578) was administered once in one animal and repeated daily in another animal. […]
A vascular access was gained in the auricular artery for blood sampling and in auricular vein for perfusion. […] The lowest limit of quantification of the method (LOQ) is 2.0 mg/L. The results of plasmatic assay of teicoplanin are reported in table 8 and in FIG. 7.

teicoplanin [Injectable teicoplanin] yielded a Teicoplanin serum concentration below 2.0 mg/L.
